Measurements: US8883801B2, “Substituted pyrazolo[1,5-a]pyrimidines as mTOR inhibitors” (Merck Sharp & Dohme Corp., priority 2010, dated 2014)

target: human mTOR enzyme (Homo sapiens, UniProt P42345); assay: HTRF mTOR enzyme (kinase) assay; format: biochemical; conditions: rated class; 5 μM ATP, 0.2 μM GST-S6K; read-out: hMTOR IC50
Method: Methods: An HTRF mTOR enzyme assay was developed to assess the compounds' inhibitory activity. The mTOR assay buffer contained 10 mM Hepes (pH 7.4), 50 mM NaCl, […] BSA, 50 mM […], 10 mM MnCl2 and 0.5 mM DTT. […] 20 ng of human mTOR enzyme (<5% pure was preincubated with the compound for 10 minutes followed by the addition of 5 μM ATP and 0.2 μM GST-S6K (Zhang et al., Protein Expression and Purification 46, pp 414-420 (2006)). The reaction was incubated for one hour at 30° C. Anti phospho p70-S6K(Thr389) (˜1.7 ng/well, anti-phospho-p70S6K-cryptate (Pho-p70S6-Kin-K cat#64CUSKAY, from Cisbio)) and anti GST-XL665 (1:1 Ratio with the substrate GST-S6K, anti GST-XL665, cat#61GSTXLB) Cisbio) were added after the reaction was stopped. The plates were read (PHERAstar, BMG) at least 2 hours after adding the anti phospho p70-S6K and the anti GST-XL665.
IC50 DETERMINATIONS: Dose-response curves were plotted from the inhibition data generated, each in duplicate, from 8 point serial dilutions of inhibitory compounds. Concentration of compound was plotted against the HTRF em665/em590 ratio signal. To generate IC50 values, the dose-response curves were fitted to a standard sigmoidal curve and IC50 values were derived by nonlinear regression analysis.

Chain of human mTOR enzyme (P42345 1360-2549 limits assumed): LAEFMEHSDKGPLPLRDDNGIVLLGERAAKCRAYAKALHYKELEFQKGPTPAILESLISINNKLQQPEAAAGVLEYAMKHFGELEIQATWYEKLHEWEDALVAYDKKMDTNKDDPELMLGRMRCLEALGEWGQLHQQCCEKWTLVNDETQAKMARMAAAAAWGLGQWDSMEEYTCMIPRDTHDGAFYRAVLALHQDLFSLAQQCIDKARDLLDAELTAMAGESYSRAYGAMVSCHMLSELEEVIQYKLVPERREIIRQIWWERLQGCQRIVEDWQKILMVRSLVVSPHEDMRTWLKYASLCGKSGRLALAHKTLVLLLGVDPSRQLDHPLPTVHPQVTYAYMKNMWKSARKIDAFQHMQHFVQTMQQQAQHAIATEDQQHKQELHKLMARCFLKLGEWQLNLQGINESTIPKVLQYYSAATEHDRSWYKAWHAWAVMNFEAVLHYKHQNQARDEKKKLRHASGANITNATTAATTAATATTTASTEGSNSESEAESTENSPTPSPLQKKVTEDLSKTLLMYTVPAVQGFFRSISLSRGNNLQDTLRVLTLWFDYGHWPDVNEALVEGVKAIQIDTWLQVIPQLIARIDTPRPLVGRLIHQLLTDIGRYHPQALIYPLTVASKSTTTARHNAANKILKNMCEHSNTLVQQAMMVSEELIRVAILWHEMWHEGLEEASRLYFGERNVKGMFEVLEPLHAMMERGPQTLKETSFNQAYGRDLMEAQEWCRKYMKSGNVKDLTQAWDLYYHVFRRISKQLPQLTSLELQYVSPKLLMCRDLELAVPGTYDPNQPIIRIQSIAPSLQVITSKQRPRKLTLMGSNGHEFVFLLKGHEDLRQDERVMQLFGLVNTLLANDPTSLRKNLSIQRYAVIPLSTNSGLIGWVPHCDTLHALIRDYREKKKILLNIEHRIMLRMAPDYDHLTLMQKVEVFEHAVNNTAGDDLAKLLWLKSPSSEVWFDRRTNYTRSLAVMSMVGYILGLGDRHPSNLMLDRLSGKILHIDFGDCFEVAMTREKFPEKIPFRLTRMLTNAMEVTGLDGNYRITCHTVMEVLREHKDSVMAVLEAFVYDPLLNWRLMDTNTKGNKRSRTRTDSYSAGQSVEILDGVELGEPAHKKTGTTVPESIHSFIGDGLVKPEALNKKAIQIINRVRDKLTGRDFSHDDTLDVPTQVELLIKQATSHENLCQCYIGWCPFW

| SMILES | IC50 |
| --- | --- |
| COC[C@]1(C(=O)O)CC[C@H](c2nc3c(-c4cnn(-c5ccccc5)c4)cnn3c(N)c2C(C)=O)CC1 [Compound 20, (1R,4R)-4-(6-acetyl-7-amino-3-(1-phenyl-1H-pyrazol-4-yl)pyrazolo[1,5-a]pyrimidin-5-yl)-1-(methoxymethyl)-cyclohexane-carboxylic acid] | 100 to 1000 nM |
| COCCO[C@]1(C(=O)O)CC[C@@H](c2nc3c(-c4ccc(-c5ccn(C)n5)[n+]([O-])c4)cnn3c(N)c2S(C)(=O)=O)CC1 [Compound 45, 5-(7-amino-5-((1R,4R)-4-carboxy-4-(2-methoxyethoxy)cyclohexyl)-6-(methylsulfonyl)-pyrazolo[1,5-a]pyrimidin-3-yl)-2-(1-methyl-1H-pyrazol-3-yl)pyridine 1-oxide] | 1 to 100 nM |
| COCCO[C@]1(C(=O)O)CC[C@@H](c2nc3c(-c4cnc(-c5ccn(C)n5)nc4)cnn3c(N)c2S(C)(=O)=O)CC1 [Compound 49, (1R,4R)-4-(7-amino-3-(2-(1-methyl-1H-pyrazol-3-yl)pyrimidin-5-yl)-6-(methylsulfonyl)-pyrazolo[1,5-a]-pyrimidin-5-yl)-1-(2-mcthoxyethoxy)-cyclohexanecarboxylic acid] | 1 to 100 nM |
| COCCO[C@]1(C(=O)O)CC[C@@H](c2nc3c(-c4cnn(-c5ccc(S(C)(=O)=O)cc5)c4)cnn3c(N)c2S(C)(=O)=O)CC1 [Compound 53, (1R,4R)-4-(7-amino-6-(methylsulfonyl)-3-(1-(4-(methylsulfonyl)phenyl)-1H-pyrazol-4-yl)pyrazolo[1,5-a]pyrimidin-5-yl)-1-(2-methoxyethoxy)cyclohexanecarboxylic acid] | 100 to 1000 nM |
| COCCO[C@]1(C(=O)N(C)OC)CC[C@@H](c2nc3c(-c4cnn(-c5ccccc5)c4)cnn3c(N)c2S(C)(=O)=O)CC1 [Compound 97, (1R,4R)-4-(7-amino-6-(methylsulfonyl)-3-(1-phenyl-1H-pyrazol-4-yl)pyrazolo[1,5-a]pyrimidin-5-yl)-N-methoxy-1-(2-methoxyethoxy)-N-methylcyclohexane-carboxamide] | 1 to 100 nM |
| CCONC(=O)[C@]1(OCCOC)CC[C@H](c2nc3c(-c4cnn(-c5ccccc5)c4)cnn3c(N)c2S(C)(=O)=O)CC1 [Compound 98, (1R,4R)-4-(7-amino-6-(methylsulfonyl)-3-(1-phenyl-1H-pyrazol-4-yl)pyrazolo[1,5-a]pyrimidin-5-yl)-N-ethoxy-1-(2-methoxyethoxy)-cyclohexane-carboxamide] | 1 to 100 nM |
| COCCO[C@]1(C(=O)NOCC2CC2)CC[C@@H](c2nc3c(-c4cnn(-c5ccccc5)c4)cnn3c(N)c2S(C)(=O)=O)CC1 [Compound 99, (1R,4R)-4-(7-amino-6-(methylsulfonyl)-3-(1-phenyl-1H-pyrazol-4-yl)pyrazolo[1,5-a]pyrimidin-5-yl)-N-(cyclopropylmethoxy)-1-(2-methoxyethoxy)-cyclohexane-carboxamide] | 1 to 100 nM |
| COCCONC(=O)[C@]1(OCCOC)CC[C@H](c2nc3c(-c4cnn(-c5ccccc5)c4)cnn3c(N)c2S(C)(=O)=O)CC1 [Compound 101] | 1 to 100 nM |
| COCCO[C@]1(C(=O)NOCC2CC2)CC[C@@H](c2nc3c(-c4ccc(-c5ccccc5)nc4)cnn3c(N)c2S(C)(=O)=O)CC1 [Compound 106, (1R,4R)-4-(7-amino-6-(methylsulfonyl)-3-(6-phenylpyridin-3-yl)pyrazolo[1,5-a]pyrimidin-5-yl)-N-(cyclopropylmethoxy)-1-(2-methoxyethoxy)-cyclohexane-carboxamide] | 1 to 100 nM |
| COCCO[C@]1(C(=O)c2nnc[nH]2)CC[C@H](c2nc3c(-c4cnn(-c5ccccc5)c4)cnn3c(N)c2S(C)(=O)=O)CC1 [Compound 123, ((1S,4S)-4-(7-amino-6-(methylsulfonyl)-3-(1-phenyl-1H-pyrazol-4-yl)pyrazolo[1,5-a]pyrimidin-5-yl)-1-(2-methoxyethoxy)cyclohexyl)(4H-1,2,4-triazol-3-yl)methanone] | 1 to 100 nM |
| COCCO[C@]1(C(=O)c2nnc[nH]2)CC[C@H](c2nc3c(-c4ccc(-c5ccccc5)nc4)cnn3c(N)c2S(C)(=O)=O)CC1 [Compound 124, ((1S,4S)-4-(7-amino-6-(methylsulfonyl)-3-(6-phenylpyridin-3-yl)pyrazolo[1,5-a]pyrimidin-5-yl)-1-(2-methoxyethoxy)cyclohexyl)(4H-1,2,4-triazol-3-yl)methanone] | 1 to 100 nM |
| COCCO[C@]1(C(=O)CO)CC[C@@H](c2nc3c(-c4ccc(-c5ccccc5)nc4)cnn3c(N)c2S(C)(=O)=O)CC1 [Compound 130, 1-((1R,4R)-4-(7-amino-6-(methylsulfonyl)-3-(6-phenylpyridin-3-yl)pyrazolo[1,5-a]pyrimidin-5-yl)-1-(2-methoxyethoxy)cyclohexyl)-2-hydroxyethanone] | 1 to 100 nM |

The remaining lines, values ahead:

| IC50 | SMILES |
| --- | --- |
| 1 to 100 nM | COCCO[C@]1(C(=O)O)CC[C@H](c2nc3c(-c4ccc(-c5nccs5)nc4)cnn3c(N)c2C(C)=O)CC1 [Compound 59] |
| 1 to 100 nM | COCCO[C@]1(C(=O)O)CC[C@H](c2nc3c(-c4ccc(-c5cscn5)nc4)cnn3c(N)c2C(C)=O)CC1 [Compound 61, (1S,4S)-4-(6-acetyl-7-amino-3-(6-(thiazol-4-yl)pyridin-3-yl)pyrazolo[1,5-a]pyrimidin-5-yl)-1-(2-methoxyethoxy) cyclohexanecarboxylic acid] |
| 100 to 1000 nM | CO[C@]1(CC(=O)O)CC[C@H](c2nc3c(-c4ccc(-c5ccccc5)nc4)cnn3c(N)c2Br)CC1 [Compound 80, 2-((1S,4S)-4-(7-amino-6-bromo-3-(6-phenylpyridin-3-yl)pyrazolo[1,5-a]pyrimidin-5-yl)-1-methoxycyclohexyl)acetic acid] |
| 100 to 1000 nM | CO[C@]1(CC(=O)O)CC[C@@H](c2nc3c(-c4ccc(-c5ccccc5)nc4)cnn3c(N)c2Br)CC1 [Compound 81] |
| 1 to 100 nM | CC(=O)c1c(C2CCC(O)(CO)CC2)nc2c(-c3ccc(-c4ccc(O)nc4)nc3)cnn2c1N (stereo not drawn) [Compound 147, 1-(7-amino-3-(6′-hydroxy-2,3′-bipyridin-5-yl)-5-(4-hydroxy-4-(hydroxymethyl)-cyclohexyl)-pyrazolo-[1,5-a]pyrimidin-6-yl)ethanone] |
| 100 to 1000 nM | CC(=O)c1c(N)n2ncc(-c3cnn(-c4cnn(C)c4)c3)c2nc1[C@H]1CC[C@](O)(CO)CC1 [Compound 149, 1-(7-amino-5-((1S,4S)-4-hydroxy-4-(hydroxymethyl)-cyclohexyl)-3-(1′-methyl-1′H-1,4′-bipyrazol-4-yl)pyrazolo[1,5-a]pyrimidin-6-yl)ethanone] |
| 1 to 100 nM | COC(=O)c1cccc(-c2ccc(-c3cnn4c(N)c(C(C)=O)c(C5CCC(O)(CO)CC5)nc34)cn2)c1 (stereo not drawn) [Compound 150, methyl 3-(5-(6-acetyl-7-amino-5-(4-hydroxy-4-(hydroxymethyl)-cyclohexyl)-pyrazolo-[1,5-a]pyrimidin-3-yl)pyridin-2-yl)benzoate] |
| 1 to 100 nM | CC(=O)c1c(C2CCC(O)(CO)CC2)nc2c(-c3ccc(-c4cccc(C(=O)O)c4)nc3)cnn2c1N (stereo not drawn) [Compound 151, 3-(5-(6-acetyl-7-amino-5-(4-hydroxy-4-(hydroxymethyl)-cyclohexyl)-pyrazolo-[1,5-a]pyrimidin-3-yl)pyridin-2-yl)benzoic acid] |
| 1 to 100 nM | COC(=O)c1cc(-c2ccc(-c3cnn4c(N)c(C(C)=O)c([C@H]5CC[C@](O)(CO)CC5)nc34)cn2)ccc1OC [Compound 154, methyl 5-(5-(6-acetyl-7-amino-5-((1S,4S)-4-hydroxy-4-(hydroxymethyl)-cyclohexyl)-pyrazolo-[1,5-a]pyrimidin-3-yl)pyridin-2-yl)-2-methoxybenzoate] |
